From patent US20090105270A1, “Kinase inhibition and anticancer therapy” (priority 2007, published 2009)

Tests used:
[1] = target: T1, BTK(h) (Homo sapiens, UniProt Q06187); test: Upstate kinase activity inhibition assay BTK(h); type: biochemical
T1 construct: purchased Upstate (KinaseProfiler service)

[2] = target: T2, DYRK2(h) (Homo sapiens, UniProt Q92630); test: Upstate kinase activity inhibition assay DYRK2(h); type: biochemical; details: 40 min; read-out: percentage of enzyme activity that remains
T2 construct: purchased Upstate (KinaseProfiler service)

[3] = target: T3, EphA7(h) (Homo sapiens, UniProt Q15375); test: Upstate kinase activity inhibition assay EphA7(h); type: biochemical; details: 40 min; read-out: percentage of enzyme activity that remains
T3 construct: purchased Upstate (KinaseProfiler service)

[4] = target: T4, EphB4(h) (Homo sapiens, UniProt P54760); test: Upstate kinase activity inhibition assay EphB4(h); type: biochemical; details: 40 min; read-out: percentage of enzyme activity that remains
T4 construct: purchased Upstate (KinaseProfiler service)

[5] = target: T5, Fer(h) (Homo sapiens, UniProt P16591); test: Upstate kinase activity inhibition assay Fer(h); type: biochemical; details: 40 min; read-out: percentage of enzyme activity that remains
T5 construct: purchased Upstate (KinaseProfiler service)

[6] = target: T6, IKKα(h) (Homo sapiens, UniProt O15111); test: Upstate kinase activity inhibition assay IKKα(h); type: biochemical; details: 40 min; read-out: percentage of enzyme activity that remains
T6 construct: purchased Upstate (KinaseProfiler service)
T6 sequence (O15111 whole entry): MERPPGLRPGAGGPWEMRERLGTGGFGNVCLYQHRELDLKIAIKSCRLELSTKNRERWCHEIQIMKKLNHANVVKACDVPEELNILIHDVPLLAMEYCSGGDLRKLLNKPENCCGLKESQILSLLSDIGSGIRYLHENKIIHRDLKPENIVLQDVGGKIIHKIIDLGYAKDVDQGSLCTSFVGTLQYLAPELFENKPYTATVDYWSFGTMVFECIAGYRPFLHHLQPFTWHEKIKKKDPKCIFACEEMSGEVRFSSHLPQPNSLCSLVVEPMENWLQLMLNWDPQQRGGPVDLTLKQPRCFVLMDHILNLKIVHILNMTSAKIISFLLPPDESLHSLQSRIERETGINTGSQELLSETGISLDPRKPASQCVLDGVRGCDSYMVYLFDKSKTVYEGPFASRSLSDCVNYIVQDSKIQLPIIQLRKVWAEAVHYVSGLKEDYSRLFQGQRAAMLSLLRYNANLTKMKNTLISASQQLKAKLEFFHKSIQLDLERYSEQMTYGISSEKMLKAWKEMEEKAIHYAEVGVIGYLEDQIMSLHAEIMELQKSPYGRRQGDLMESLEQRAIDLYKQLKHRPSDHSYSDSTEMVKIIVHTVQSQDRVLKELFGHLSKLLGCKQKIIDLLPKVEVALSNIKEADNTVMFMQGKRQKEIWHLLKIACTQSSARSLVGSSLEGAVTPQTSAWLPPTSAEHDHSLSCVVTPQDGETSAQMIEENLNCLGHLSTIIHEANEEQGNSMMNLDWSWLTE

[7] = target: T7, JNK3(h) (Homo sapiens, UniProt P53779); test: Upstate kinase activity inhibition assay JNK3(h); type: biochemical
T7 construct: purchased Upstate (KinaseProfiler service)

[8] = target: T8, LIMK1(h) (Homo sapiens, UniProt P53667); test: Upstate kinase activity inhibition assay LIMK1(h); type: biochemical; details: 40 min; read-out: percentage of enzyme activity that remains
T8 construct: purchased Upstate (KinaseProfiler service)

[9] = target: T9, MINK(h) (Homo sapiens, UniProt Q8N4C8); test: Upstate kinase activity inhibition assay MINK(h); type: biochemical; details: 40 min; read-out: percentage of enzyme activity that remains
T9 construct: purchased Upstate (KinaseProfiler service)
T9 sequence (Q8N4C8 whole entry): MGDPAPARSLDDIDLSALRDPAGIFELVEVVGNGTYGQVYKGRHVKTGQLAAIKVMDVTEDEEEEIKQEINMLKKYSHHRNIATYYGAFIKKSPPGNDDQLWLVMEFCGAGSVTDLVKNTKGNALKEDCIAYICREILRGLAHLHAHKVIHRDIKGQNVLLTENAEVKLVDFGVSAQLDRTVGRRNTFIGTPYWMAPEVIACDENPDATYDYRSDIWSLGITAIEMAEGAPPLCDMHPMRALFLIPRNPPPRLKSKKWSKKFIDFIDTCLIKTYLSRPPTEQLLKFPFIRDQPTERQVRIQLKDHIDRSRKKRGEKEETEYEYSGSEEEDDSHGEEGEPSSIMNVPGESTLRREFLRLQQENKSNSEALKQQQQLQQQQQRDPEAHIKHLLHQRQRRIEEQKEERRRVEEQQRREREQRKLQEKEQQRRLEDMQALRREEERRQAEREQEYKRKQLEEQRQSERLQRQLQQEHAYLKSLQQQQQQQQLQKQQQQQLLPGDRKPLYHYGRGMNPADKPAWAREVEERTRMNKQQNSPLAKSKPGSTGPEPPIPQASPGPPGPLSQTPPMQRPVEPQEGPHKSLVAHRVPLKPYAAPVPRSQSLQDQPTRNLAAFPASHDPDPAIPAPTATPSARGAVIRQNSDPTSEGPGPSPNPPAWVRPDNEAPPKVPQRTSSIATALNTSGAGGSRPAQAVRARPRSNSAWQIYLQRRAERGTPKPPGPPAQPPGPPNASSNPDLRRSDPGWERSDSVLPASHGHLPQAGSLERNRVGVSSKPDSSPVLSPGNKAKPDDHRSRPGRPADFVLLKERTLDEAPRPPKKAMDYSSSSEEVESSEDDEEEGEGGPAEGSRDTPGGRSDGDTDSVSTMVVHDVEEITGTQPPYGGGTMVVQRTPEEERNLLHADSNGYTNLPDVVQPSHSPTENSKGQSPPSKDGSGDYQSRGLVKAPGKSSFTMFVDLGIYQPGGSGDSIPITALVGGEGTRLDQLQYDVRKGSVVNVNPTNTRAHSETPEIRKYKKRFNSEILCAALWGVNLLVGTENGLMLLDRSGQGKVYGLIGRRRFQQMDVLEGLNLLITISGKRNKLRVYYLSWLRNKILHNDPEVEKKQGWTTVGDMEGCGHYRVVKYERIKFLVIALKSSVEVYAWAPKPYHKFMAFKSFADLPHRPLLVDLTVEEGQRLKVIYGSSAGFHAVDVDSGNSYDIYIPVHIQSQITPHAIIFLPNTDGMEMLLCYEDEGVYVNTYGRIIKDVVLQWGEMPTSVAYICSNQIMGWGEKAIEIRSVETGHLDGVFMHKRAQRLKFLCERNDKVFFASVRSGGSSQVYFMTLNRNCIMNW

[10] = target: T10, Mnk2(h) (Homo sapiens, UniProt Q9HBH9); test: Upstate kinase activity inhibition assay Mnk2(h); type: biochemical; details: 40 min; read-out: percentage of enzyme activity that remains
T10 construct: purchased Upstate (KinaseProfiler service)

[11] = target: T11, MST1(h) (Homo sapiens, UniProt Q13043); test: Upstate kinase activity inhibition assay MST1(h); type: biochemical
T11 construct: purchased Upstate (KinaseProfiler service)

[12] = target: T12, Pim-2(h) (Homo sapiens, UniProt Q9P1W9); test: Upstate kinase activity inhibition assay Pim-2(h); type: biochemical; details: 40 min; read-out: percentage of enzyme activity that remains
T12 construct: purchased Upstate (KinaseProfiler service)

[13] = target: T13, PKBγ(h) (Homo sapiens, UniProt Q9Y243); test: Upstate kinase activity inhibition assay PKBγ(h); type: biochemical; details: 40 min; read-out: percentage of enzyme activity that remains
T13 construct: purchased Upstate (KinaseProfiler service)

[14] = target: T14, PKCβI(h) (Homo sapiens, UniProt P05771); test: Upstate kinase activity inhibition assay PKCβI(h); type: biochemical; details: 40 min; read-out: percentage of enzyme activity that remains
T14 construct: purchased Upstate (KinaseProfiler service)

[15] = target: T15, PKCε(h) (Homo sapiens, UniProt Q02156); test: Upstate kinase activity inhibition assay PKCε(h); type: biochemical; details: 40 min; read-out: percentage of enzyme activity that remains
T15 construct: purchased Upstate (KinaseProfiler service)

[16] = target: T16, PKG1α(h) (Homo sapiens, UniProt Q13976); test: Upstate kinase activity inhibition assay PKG1α(h); type: biochemical; details: 40 min; read-out: percentage of enzyme activity that remains
T16 construct: purchased Upstate (KinaseProfiler service)

[17] = target: T17, PKG1β(h) (Homo sapiens, UniProt Q13976); test: Upstate kinase activity inhibition assay PKG1β(h); type: biochemical; details: 40 min; read-out: percentage of enzyme activity that remains
T17 construct: purchased Upstate (KinaseProfiler service)
T17 sequence (Q13976 1-686 isoform Q13976-2): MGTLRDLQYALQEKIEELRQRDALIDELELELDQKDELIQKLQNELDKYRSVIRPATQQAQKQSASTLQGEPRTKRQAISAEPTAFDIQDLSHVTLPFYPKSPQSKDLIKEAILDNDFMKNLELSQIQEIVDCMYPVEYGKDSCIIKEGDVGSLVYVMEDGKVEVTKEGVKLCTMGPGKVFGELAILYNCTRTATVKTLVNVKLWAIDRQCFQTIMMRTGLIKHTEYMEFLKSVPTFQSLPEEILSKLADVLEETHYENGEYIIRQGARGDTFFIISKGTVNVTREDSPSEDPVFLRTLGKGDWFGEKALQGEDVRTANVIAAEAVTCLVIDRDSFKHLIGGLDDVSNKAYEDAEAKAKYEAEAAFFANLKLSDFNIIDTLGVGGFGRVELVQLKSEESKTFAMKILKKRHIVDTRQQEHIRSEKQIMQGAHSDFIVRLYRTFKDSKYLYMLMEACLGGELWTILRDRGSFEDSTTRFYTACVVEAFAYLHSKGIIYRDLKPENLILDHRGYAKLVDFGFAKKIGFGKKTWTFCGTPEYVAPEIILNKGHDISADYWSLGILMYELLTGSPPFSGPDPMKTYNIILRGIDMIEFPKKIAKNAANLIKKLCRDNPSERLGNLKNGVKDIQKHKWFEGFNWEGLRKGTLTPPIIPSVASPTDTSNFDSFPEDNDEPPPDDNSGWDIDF

[18] = target: T18, Pyk2(h) (Homo sapiens, UniProt Q14289); test: Upstate kinase activity inhibition assay Pyk2(h); type: biochemical; details: 40 min; read-out: percentage of enzyme activity that remains
T18 construct: purchased Upstate (KinaseProfiler service)

[19] = target: T19, ZAP-70(h) (Homo sapiens, UniProt P43403); test: Upstate kinase activity inhibition assay ZAP-70(h); type: biochemical; details: 40 min; read-out: percentage of enzyme activity that remains
T19 construct: purchased Upstate (KinaseProfiler service)

[20] = target: CK2(h) (Homo sapiens, UniProt P68400); test: Upstate kinase activity inhibition assay CK2(h); details: 40 min, read-out: percentage of enzyme activity that remains
Sequence of CK2(h) (P68400 whole entry): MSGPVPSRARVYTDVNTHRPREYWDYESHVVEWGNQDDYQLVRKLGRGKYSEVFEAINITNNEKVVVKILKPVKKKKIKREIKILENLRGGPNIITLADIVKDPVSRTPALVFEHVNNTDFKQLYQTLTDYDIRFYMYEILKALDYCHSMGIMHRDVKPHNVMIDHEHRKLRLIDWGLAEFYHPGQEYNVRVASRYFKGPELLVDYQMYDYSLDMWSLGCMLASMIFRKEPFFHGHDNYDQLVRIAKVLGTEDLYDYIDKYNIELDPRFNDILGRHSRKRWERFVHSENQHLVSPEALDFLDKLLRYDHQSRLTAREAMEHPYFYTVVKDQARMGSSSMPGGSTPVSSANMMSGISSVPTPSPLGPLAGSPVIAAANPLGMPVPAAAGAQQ
Sequence of CK2(h) (P67870 whole entry partner): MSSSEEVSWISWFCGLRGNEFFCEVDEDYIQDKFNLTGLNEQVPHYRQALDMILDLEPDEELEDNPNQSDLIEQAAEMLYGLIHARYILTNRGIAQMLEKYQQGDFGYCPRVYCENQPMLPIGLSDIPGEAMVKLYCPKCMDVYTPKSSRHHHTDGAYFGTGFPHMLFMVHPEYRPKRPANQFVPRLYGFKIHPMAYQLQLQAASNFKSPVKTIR

[21] = target: LOK(h) (Homo sapiens, UniProt O94804); test: Upstate kinase activity inhibition assay LOK(h)
[22] = target: Snk(h) (Homo sapiens, UniProt Q9NYY3); test: Upstate kinase activity inhibition assay Snk(h)
Sequence of Snk(h) (Q9NYY3 whole entry): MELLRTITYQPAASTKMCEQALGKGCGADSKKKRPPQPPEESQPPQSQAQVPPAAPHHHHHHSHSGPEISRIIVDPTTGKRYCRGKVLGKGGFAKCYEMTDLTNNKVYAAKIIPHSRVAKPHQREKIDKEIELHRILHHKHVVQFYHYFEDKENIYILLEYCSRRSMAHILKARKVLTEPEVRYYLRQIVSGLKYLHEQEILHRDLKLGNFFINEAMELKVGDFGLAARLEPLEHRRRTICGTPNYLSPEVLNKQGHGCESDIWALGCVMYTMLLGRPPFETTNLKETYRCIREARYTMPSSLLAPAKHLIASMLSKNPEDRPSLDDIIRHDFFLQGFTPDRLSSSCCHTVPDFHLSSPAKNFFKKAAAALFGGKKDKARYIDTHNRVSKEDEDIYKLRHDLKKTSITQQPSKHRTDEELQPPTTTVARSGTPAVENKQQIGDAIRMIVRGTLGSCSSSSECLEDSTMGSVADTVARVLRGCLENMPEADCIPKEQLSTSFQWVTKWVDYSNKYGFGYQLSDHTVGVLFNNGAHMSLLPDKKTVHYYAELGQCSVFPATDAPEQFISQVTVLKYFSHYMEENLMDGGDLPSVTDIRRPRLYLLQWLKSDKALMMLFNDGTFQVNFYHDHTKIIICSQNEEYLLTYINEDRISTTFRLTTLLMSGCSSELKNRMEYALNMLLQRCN

[23] = target: CHK2(h) (Homo sapiens, UniProt O96017); test: Upstate kinase activity inhibition assay CHK2(h); details: 40 min, read-out: percentage of enzyme activity that remains
[24] = target: JAK3(h) (Homo sapiens, UniProt P52333); test: Upstate kinase activity inhibition assay JAK3(h); details: 40 min, read-out: percentage of enzyme activity that remains
[25] = target: PAK4(h) (Homo sapiens, UniProt O96013); test: Upstate kinase activity inhibition assay PAK4(h); details: 40 min, read-out: percentage of enzyme activity that remains
[26] = target: Rsk2(h) (Homo sapiens, UniProt P51812); test: Upstate kinase activity inhibition assay Rsk2(h); details: 40 min, read-out: percentage of enzyme activity that remains
[27] = target: EphA2(h) (Homo sapiens, UniProt P29317); test: Upstate kinase activity inhibition assay EphA2(h); details: 40 min, read-out: percentage of enzyme activity that remains
[28] = target: EphA4(h) (Homo sapiens, UniProt P54764); test: Upstate kinase activity inhibition assay EphA4(h); details: 40 min, read-out: percentage of enzyme activity that remains
Sequence of EphA4(h) (P54764 20-986): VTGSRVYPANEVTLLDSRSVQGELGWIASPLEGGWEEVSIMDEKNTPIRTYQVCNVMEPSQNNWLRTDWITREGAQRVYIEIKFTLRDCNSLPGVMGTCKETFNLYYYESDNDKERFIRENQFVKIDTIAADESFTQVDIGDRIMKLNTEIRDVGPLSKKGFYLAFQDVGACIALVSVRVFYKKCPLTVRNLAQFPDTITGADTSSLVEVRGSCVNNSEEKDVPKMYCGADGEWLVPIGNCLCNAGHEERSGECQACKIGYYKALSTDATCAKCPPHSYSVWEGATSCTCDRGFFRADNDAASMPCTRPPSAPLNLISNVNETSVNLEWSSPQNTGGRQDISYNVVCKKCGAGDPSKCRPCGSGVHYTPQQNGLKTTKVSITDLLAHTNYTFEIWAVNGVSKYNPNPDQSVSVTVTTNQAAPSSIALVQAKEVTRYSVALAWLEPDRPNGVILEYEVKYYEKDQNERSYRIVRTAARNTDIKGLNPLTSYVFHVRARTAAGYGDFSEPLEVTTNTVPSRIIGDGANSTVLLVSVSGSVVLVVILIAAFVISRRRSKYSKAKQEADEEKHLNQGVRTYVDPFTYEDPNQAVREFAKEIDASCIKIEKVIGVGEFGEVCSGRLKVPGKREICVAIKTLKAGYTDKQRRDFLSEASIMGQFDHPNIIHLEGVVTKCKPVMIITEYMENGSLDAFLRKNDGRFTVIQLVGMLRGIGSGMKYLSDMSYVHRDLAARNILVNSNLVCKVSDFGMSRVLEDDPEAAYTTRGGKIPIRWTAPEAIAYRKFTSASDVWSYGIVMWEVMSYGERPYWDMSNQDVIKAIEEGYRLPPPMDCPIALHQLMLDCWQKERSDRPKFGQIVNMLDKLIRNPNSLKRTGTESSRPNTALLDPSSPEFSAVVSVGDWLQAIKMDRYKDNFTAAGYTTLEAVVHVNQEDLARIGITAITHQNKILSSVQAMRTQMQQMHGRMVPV

[29] = target: EphB2(h) (Homo sapiens, UniProt P29323); test: Upstate kinase activity inhibition assay EphB2(h)
[30] = target: IRAK1(h) (Homo sapiens, UniProt P51617); test: Upstate kinase activity inhibition assay IRAK1(h); details: 40 min, read-out: percentage of enzyme activity that remains
[31] = target: SRPK2(h) (Homo sapiens, UniProt P78362); test: Upstate kinase activity inhibition assay SRPK2(h); details: 40 min, read-out: percentage of enzyme activity that remains

Structure (SMILES): Cc1cc(Nc2cc(N3CCN(C)CC3)nc(Sc3ccc(NC(=O)C4CC4)cc3)n2)n[nH]1 [Compound E, Cyclopropane carboxylic acid {4-[4-(4-methyl-piperazin-1-yl)-6-(5-methyl-2H-pyrazol-3-ylamino)-pyrimidin-2-ylsulphanyl]-phenyl}-amide]
- percentage of enzyme activity that remains ([1]; 0.2 μM Compound E): 93%
- percentage of enzyme activity that remains ([1]; 4 μM Compound E): 49%
- remaining activity at 0.2 µM [2]: 100%
- remaining activity at 4 µM [2]: 110%
- remaining activity at 4 µM [3]: 78%
- remaining activity at 0.2 µM [4]: 91%
- remaining activity at 4 µM [4]: 11%
- remaining activity at 0.2 µM [5]: 100%
- remaining activity at 4 µM [5]: 48%
- remaining activity at 0.2 µM [6]: 103%
- remaining activity at 4 µM [6]: 99%
- percentage of enzyme activity that remains ([7]; 0.2 μM Compound E): 94%
- percentage of enzyme activity that remains ([7]; 4 μM Compound E): 69%
- remaining activity at 0.2 µM [8]: 71%
- remaining activity at 4 µM [8]: 15%
- remaining activity at 0.2 µM [9]: 103%
- remaining activity at 4 µM [9]: 82%
- remaining activity at 4 µM [10]: 96%
- percentage of enzyme activity that remains ([11]; 0.2 μM Compound E): 88%
- percentage of enzyme activity that remains ([11]; 4 μM Compound E): 38%
- remaining activity at 0.2 µM [12]: 110%
- remaining activity at 4 µM [12]: 124%
- remaining activity at 0.2 µM [13]: 89%
- remaining activity at 4 µM [13]: 83%
- remaining activity at 0.2 µM [14]: 100%
- remaining activity at 4 µM [14]: 98%
- remaining activity at 0.2 µM [15]: 98%
- remaining activity at 4 µM [15]: 96%
- remaining activity at 4 µM [16]: 89%
- remaining activity at 0.2 µM [17]: 87%
- remaining activity at 4 µM [17]: 87%
- remaining activity at 0.2 µM [18]: 100%
- remaining activity at 4 µM [18]: 59%
- remaining activity at 0.2 µM [19]: 75%
- remaining activity at 4 µM [19]: 64%
- remaining activity at 0.2 µM [20]: 100%
- remaining activity at 4 µM [20]: 93%
- percentage of enzyme activity that remains ([21]; 0.2 μM Compound E): 92%
- percentage of enzyme activity that remains ([21]; 4 μM Compound E): 37%
- percentage of enzyme activity that remains ([22]; 0.2 μM Compound E): 99%
- percentage of enzyme activity that remains ([22]; 4 μM Compound E): 103%
- remaining activity at 0.2 µM [23]: 99%
- remaining activity at 4 µM [23]: 89%
- remaining activity at 0.2 µM [24]: 107%
- remaining activity at 4 µM [24]: 105%
- remaining activity at 0.2 µM [25]: 85%
- remaining activity at 4 µM [25]: 75%
- remaining activity at 0.2 µM [26]: 109%
- remaining activity at 4 µM [26]: 82%
- remaining activity at 0.2 µM [27]: 78%
- remaining activity at 4 µM [27]: 10%
- remaining activity at 0.2 µM [28]: 103%
- remaining activity at 4 µM [28]: 61%
- percentage of enzyme activity that remains ([29]; 0.2 μM Compound E): 121%
- percentage of enzyme activity that remains ([29]; 4 μM Compound E): 107%
- remaining activity at 0.2 µM [30]: 107%
- remaining activity at 4 µM [30]: 108%
- remaining activity at 0.2 µM [31]: 122%
- remaining activity at 4 µM [31]: 109%
